The source of these data is US20150031693A1, “PAK INHIBITORS FOR THE TREATMENT OF FRAGILE X SYNDROME” (AFRAXIS HOLDINGS, INC., priority 2011, published 2015).

The target in test [1] is T1, PAK1 (Homo sapiens, UniProt Q13153). Description: Additional in vitro PAK inhibition assay, PAK1. Type of test: biochemical. On the procedure: (§1) Additional In Vitro PAK Inhibition Assay
(§2) Similar in vitro PAK1 and PAK4 inhibition assay was conducted in compounds for the treatment of Fragile X syndrome, but under ATP concentrations of 10 uM and 1 mM.

Test [2] deals with T2, PAK4 (Homo sapiens, UniProt O96013). Put plainly: Additional in vitro PAK inhibition assay, PAK4. The note with it: 10 μM ATP. In kind it is biochemical. On the procedure: as §1, §2
T2 sequence (O96013 whole entry): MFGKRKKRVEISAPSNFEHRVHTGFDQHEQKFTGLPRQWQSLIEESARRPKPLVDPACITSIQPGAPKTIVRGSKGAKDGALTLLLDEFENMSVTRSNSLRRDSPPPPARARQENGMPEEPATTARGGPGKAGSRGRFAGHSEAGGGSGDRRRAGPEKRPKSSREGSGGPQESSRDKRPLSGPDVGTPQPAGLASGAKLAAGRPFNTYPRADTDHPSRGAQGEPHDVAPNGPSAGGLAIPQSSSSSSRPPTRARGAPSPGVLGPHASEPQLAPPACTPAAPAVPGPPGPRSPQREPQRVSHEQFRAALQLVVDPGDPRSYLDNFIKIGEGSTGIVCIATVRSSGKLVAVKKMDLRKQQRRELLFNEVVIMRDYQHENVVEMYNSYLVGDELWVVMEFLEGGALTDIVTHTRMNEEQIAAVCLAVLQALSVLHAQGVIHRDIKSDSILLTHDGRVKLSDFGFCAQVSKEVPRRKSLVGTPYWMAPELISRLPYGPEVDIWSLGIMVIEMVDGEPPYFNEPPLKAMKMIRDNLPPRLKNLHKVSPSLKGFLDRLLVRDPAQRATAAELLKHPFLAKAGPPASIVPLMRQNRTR
Test [3] has as its system p-MEK1(S298). Put plainly: In vitro cellular HTRF assay for p-MEK1(S298). In kind it is cell-based. To be noted: cell line RT4-D6P2T, read-out: pMEK1(S298). From the text:
(§3) In Vitro p-PAK1(S144) and p-MEK1(S298) Cellular Assay
(§4) The cell line is RT4-D6P2T.
(Time-resolved FRET reads energy transfer from a long-lived donor to a nearby acceptor.)

The subject of test [4] is p-PAK1(S144). Description: In vitro cellular HTRF assay for p-PAK1(S144). In kind it is cell-based. The note with it: cell line RT4-D6P2T, read-out: pPAK1(S144).
Description: as §3, §4

Test [5] concerns the target PAK3 (Homo sapiens, UniProt O75914). Put plainly: In vitro PAK inhibition assay (Z'-LYTE), PAK3. Type of test: biochemical. On the procedure: (§5) In Vitro PAK Inhibition Assay
(§6) Compounds are screened in 1% DMSO (final) in the well. For 10 point titrations, 3-fold serial dilutions are conducted. All Peptide/Kinase Mixtures are diluted to a 2× working concentration in the appropriate Kinase Buffer
The 2× PAK3/Ser/Thr 20 mixture is prepared in 50 mM HEPES pH 7.5, 0.01% BRIJ-35, 10 mM MgCl2, 1 mM EGTA. The final 10 μL Kinase Reaction consists of 2.25-22 ng PAK3 and 2 μM Ser/Thr 20 in 50 mM HEPES pH 7.5, 0.01% BRIJ-35, 10 mM MgCl2, 1 mM EGTA. After the 1 hour Kinase Reaction incubation, 5 μL of a 1:256 dilution of Development Reagent A is added.
(§7) Bar-coded Corning, low volume NBS, black 384-well plate (Corning Cat. #3676) • 1. Add the following solutions to a well in a 384-well plate: 2.5 μL of 4× Test Compound OR (100 nL 100× Test Compound plus 2.4 μL kinase buffer) • 5 μL of 2× Peptide/Kinase (PAK) Mixture • 2.5 μL of 4× ATP Solution • 2. Shake the plate for 30-seconds • 3. Incubate the PAK Kinase Reaction at room temperature for 60-minutes • 4. Add 5 μL of Development Reagent Solution to each well • 5. Shake the plate for 30-seconds • 6. Incubate the Development Reaction for 60-minutes • 7. Determine the fluorescence using a fluorescence plate reader • 8. Analyze the fluorescence data
(§8) SelectScreen® Kinase Profiling Service uses XLfit from IDBS. The dose response curve is curve fit to model number 205 (sigmoidal dose-response model).
(§9) The table below provides specifications and data around each kinase. The representative IC50 value with a known inhibitor for each kinase was determined at the ATP bin nearest to the ATP Km app.

Test [6] has as its target T1, PAK1. Description: In vitro PAK inhibition assay (Z'-LYTE), PAK1. In kind it is biochemical. On the procedure:
as §5, §6
The 2× PAK1/Ser/Thr 19 mixture is prepared in 50 mM HEPES pH 7.5, 0.01% BRIJ-35, 10 mM MgCl2, 1 mM EGTA. The final 10 μL Kinase Reaction consists of 2.71-30.8 ng PAK1 and 2 μM Ser/Thr 19 in 50 mM HEPES pH 7.5, 0.01% BRIJ-35, 10 mM MgCl2, 1 mM EGTA. After the 1 hour Kinase Reaction incubation, 5 μL of a 1:128 dilution of Development Reagent A is added.
as §7, §8, §9

The target in test [7] is PAK2 (PAK65) (Homo sapiens, UniProt Q13177). Description: In vitro PAK inhibition assay (Z'-LYTE), PAK2. In kind it is biochemical. How it is done: as §5, §6
Chain of PAK2 (PAK65) (Q13177 whole entry): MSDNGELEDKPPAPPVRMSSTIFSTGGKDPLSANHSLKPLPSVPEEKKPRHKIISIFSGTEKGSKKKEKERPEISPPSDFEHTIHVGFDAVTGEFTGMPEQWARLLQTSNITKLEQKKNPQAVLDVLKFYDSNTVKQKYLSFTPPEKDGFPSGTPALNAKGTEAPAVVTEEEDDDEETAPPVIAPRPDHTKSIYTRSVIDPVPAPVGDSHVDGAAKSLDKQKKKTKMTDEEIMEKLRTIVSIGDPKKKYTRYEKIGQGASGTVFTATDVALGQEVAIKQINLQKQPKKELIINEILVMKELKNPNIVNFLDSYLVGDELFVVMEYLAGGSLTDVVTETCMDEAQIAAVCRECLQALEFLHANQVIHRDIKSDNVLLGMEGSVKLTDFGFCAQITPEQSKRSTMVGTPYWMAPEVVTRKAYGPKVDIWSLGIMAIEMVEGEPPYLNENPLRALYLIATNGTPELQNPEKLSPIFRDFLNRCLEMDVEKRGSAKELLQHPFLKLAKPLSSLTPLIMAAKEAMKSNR
The 2× PAK2 (PAK65)/Ser/Thr 20 mixture is prepared in 50 mM HEPES pH 7.5, 0.01% BRIJ-35, 10 mM MgCl2, 1 mM EGTA. The final 10 μL Kinase Reaction consists of 0.29-6 ng PAK2 (PAK65) and 2 μM Ser/Thr 20 in 50 mM HEPES pH 7.5, 0.01% BRIJ-35, 10 mM MgCl2, 1 mM EGTA. After the 1 hour Kinase Reaction incubation, 5 μL of a 1:256 dilution of Development Reagent A is added.
as §7, §8, §9

In test [8] the target is T2, PAK4. Put plainly: In vitro PAK inhibition assay (Z'-LYTE), PAK4. In kind it is biochemical. On the procedure:
as §5, §6
The 2× PAK4/Ser/Thr 20 mixture is prepared in 50 mM HEPES pH 7.5, 0.01% BRIJ-35, 10 mM MgCl2, 1 mM EGTA. The final 10 μL Kinase Reaction consists of 0.1-0.75 ng PAK4 and 2 μM Ser/Thr 20 in 50 mM HEPES pH 7.5, 0.01% BRIJ-35, 10 mM MgCl2, 1 mM EGTA. After the 1 hour Kinase Reaction incubation, 5 μL of a 1:256 dilution of Development Reagent A is added.
as §7, §8, §9

Chain of PAK3 (O75914 whole entry): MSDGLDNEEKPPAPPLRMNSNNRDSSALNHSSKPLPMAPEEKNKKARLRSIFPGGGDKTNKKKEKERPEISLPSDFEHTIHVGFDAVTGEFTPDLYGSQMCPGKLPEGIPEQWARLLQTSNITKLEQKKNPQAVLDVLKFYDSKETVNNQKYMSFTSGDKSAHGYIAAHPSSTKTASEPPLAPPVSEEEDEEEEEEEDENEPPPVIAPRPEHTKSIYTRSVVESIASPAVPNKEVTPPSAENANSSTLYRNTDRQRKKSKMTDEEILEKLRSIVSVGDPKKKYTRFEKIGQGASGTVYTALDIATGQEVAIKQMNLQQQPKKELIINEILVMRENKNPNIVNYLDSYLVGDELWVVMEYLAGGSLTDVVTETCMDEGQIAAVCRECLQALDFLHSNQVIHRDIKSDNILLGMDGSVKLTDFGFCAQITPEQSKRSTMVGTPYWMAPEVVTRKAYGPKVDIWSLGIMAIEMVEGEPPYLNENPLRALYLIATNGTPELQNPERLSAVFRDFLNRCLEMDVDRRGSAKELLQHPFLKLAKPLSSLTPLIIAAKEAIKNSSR
T1 sequence (Q13153 whole entry): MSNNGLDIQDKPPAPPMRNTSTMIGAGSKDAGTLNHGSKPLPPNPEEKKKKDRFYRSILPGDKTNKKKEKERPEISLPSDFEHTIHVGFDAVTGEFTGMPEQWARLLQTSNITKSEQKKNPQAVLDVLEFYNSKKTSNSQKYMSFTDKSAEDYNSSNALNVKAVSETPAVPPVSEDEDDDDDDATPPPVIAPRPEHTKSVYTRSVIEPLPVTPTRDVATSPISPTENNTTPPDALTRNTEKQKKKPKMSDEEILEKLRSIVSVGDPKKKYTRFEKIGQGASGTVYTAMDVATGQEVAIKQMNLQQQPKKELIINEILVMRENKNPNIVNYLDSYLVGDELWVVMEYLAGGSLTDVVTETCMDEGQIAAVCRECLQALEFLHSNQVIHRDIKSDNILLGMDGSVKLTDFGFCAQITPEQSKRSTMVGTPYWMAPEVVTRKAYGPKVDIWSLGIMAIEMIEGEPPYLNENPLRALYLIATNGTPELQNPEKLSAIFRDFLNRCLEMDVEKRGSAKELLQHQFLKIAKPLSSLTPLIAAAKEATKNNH

In the case of `CCn1c(=O)c(-c2ccc(-c3noc(C)n3)cc2Cl)cc2cnc(N[C@@H]3COC[C@@H]3N3CCN(C)CC3)nc21`, the IC50 in test [1] (10 μM ATP, read-out: PAK1 IC50 (10 μM ATP)) is 50 to 500 nM; in test [1] (1 mM ATP, read-out: PAK1 IC50 (1 mM ATP)) it was over 5000 nM; in test [2], over 5 µM.

For the compound `CCn1c(=O)c(-c2ccc(-c3cncc(C)n3)cc2Cl)cc2cnc(N[C@H]3CC[C@H](CN(C)C)CC3)nc21`, the IC50 in test [3] and in test [4] was 500 to 5000 nM throughout.

Regarding `CCn1c(=O)c(-c2ccc(-c3cncc(C)n3)cc2Cl)cc2cnc(NCCCO)nc21` [Example 1, 6-(2-chloro-4-(6-methylpyrazin-2-yl)phenyl)-8-ethyl-2-((3-hydroxypropyl)amino)pyrido[2,3-d]pyrimidin-7(8H)-one], the IC50 in test [5] was 50 to 500 nM; in test [6] it was 50 to 500 nM; in test [7], 50 to 500 nM; in test [8], over 5 µM.

Take `Cc1cncc(-c2ccc(-c3cc4cnc(NC(CCO)CCO)nc4n(Cc4ccccc4C(F)(F)F)c3=O)c(Cl)c2)n1` [Example 2]: the IC50 in test [5] was 50 to 500 nM; in test [6] it was 50 to 500 nM; in test [7], 50 to 500 nM; in test [8], over 5 µM.

Consider `CCn1c(=O)c(-c2ccc(-c3nccnc3C)cc2Cl)cc2cnc(NCCCO)nc21` [Example 3], for which the IC50 in test [5] is 50 to 500 nM; in test [6], 50 to 500 nM; in test [7], 50 to 500 nM; in test [8], over 5 µM.

`CCn1c(=O)c(-c2ccc(-c3cncc(C)n3)cc2Cl)cc2cnc(NC(CCO)CCO)nc21` [Example 4]: the IC50 in test [5] was 500 to 5000 nM; in test [6], 500 to 5000 nM; in test [7], 50 to 500 nM; in test [8], over 5 µM.

For `CCn1c(=O)c(-c2ccc(-c3nccnc3C)cc2Cl)cc2cnc(NC(CCO)CCO)nc21` [Example 5], the IC50 in test [5] is 500 to 5000 nM; in test [6], 500 to 5000 nM; in test [7] it was 500 to 5000 nM; in test [8], over 5 µM.

With `CCn1c(=O)c(-c2ccc(-c3nccnc3C)cc2Cl)cc2cnc(NCCO)nc21` [Example 6], the IC50 in test [5] was 50 to 500 nM; in test [6], 50 to 500 nM; in test [7], 50 to 500 nM; in test [8], over 5 µM.

As to `CCn1c(=O)c(-c2ccc(-c3cncc(C)n3)cc2Cl)cc2cnc(NCCO)nc21` [Example 7], the IC50 in test [5] was 50 to 500 nM; in test [6], 50 to 500 nM; in test [7], 50 to 500 nM; in test [8], over 5 µM.

As to `CCn1c(=O)c(-c2ccc(-c3nccnc3C)cc2Cl)cc2cnc(NCCOC)nc21` [Example 8], the IC50 was 500 to 5000 nM in test [5], 50 to 500 nM in test [6], 50 to 500 nM in test [7] and over 5 µM in test [8].

For the compound `CCn1c(=O)c(-c2ccc(-c3nccnc3C)cc2Cl)cc2cnc(NCCCOC)nc21` [Example 9], the IC50 was 500 to 5000 nM in test [5], 50 to 500 nM in test [6], 50 to 500 nM in test [7] and over 5 µM in test [8].

For `CCn1c(=O)c(-c2ccc(-c3cncc(C)n3)cc2Cl)cc2cnc(NCCCOC)nc21` [Example 10], the IC50 in test [5] was 50 to 500 nM; in test [6], 50 to 500 nM; in test [7] it was 50 to 500 nM; in test [8], over 5 µM.

`CCn1c(=O)c(-c2ccc(-c3cncc(C)n3)cc2Cl)cc2cnc(NCCOC)nc21` [Example 11]: the IC50 in test [5] was 500 to 5000 nM; in test [6] it was 50 to 500 nM; in test [7], 50 to 500 nM; in test [8] it was over 5 µM.
